# Experimental data published in patent EP0487030A2, “Process of optical resolution for the preparation of an optically active cyclic amine” (SHIONOGI SEIYAKU KABUSHIKI KAISHA trading under the name of …, priority 1990, dated 1992).
# Where two headings read alike, the source gives them in different places.
# Legend:
# Assay in all cases: Minimum growth inhibitory concentration, method of the Japan Society of Chemotherapy
# Format in all cases: cell-based
# Escherichia coli EC-7437 = details: EC7437; bacteria F: Escherichia coli EC-7437; bacteria ×10⁶/ml
# Description: (§1) The results are shown in Table 1. • (A) : Staphylococcus aureus SR3131 • (B) : Staphylococcus aureus SR3637 • (C) : Staphylococcus aureus SR57690FLX-R* • (D) : Streptococcus pneumoniae • (E) : Streptococcus faecalis SR58180FLX-R* • (F) : Escherichia coli EC-7437 • (G) : Escherichia coli SR5038 OFLX-R* * : ofloxacin resistant bacteria
# [1] = system: Escherichia coli SR5038 OFLX-R; details: SR5038OFLXR, read-out: Minimum Inhibitory Concentration
# Description: as §1
# [2] = system: Staphylococcus aureus SR3131; details: bacteria A: Staphylococcus aureus SR3131; bacteria ×10⁶/ml
# Description: as §1
# [3] = system: Staphylococcus aureus SR3637; details: bacteria B: Staphylococcus aureus SR3637; bacteria ×10⁶/ml
# Description: as §1
# [4] = system: Staphylococcus aureus SR57690FLX-R; details: SR57690FLXR, read-out: Minimum Inhibitory Concentration
# Description: as §1
# [5] = system: Streptococcus faecalis SR58180FLX-R; details: Enterococcus faecalis, SR58180FLXR, read-out: Minimum Inhibitory Concentration
# Description: as §1
# Streptococcus pneumoniae = details: bacteria D: Streptococcus pneumoniae; bacteria ×10⁶/ml
# Description: as §1
SMILES,MIC (Escherichia coli EC-7437) [µg/mL],MIC ([1]; Escherichia coli) [µg/mL],MIC [2] [µg/mL],MIC [3] [µg/mL],MIC [4] [µg/mL],MIC [5] [µg/mL],MIC (Streptococcus pneumoniae) [µg/mL],"MIC ([1]; bacteria G: Escherichia coli SR5038 OFLX-R, ofloxacin resistant, bacteria ×10⁶/ml) [µg/mL]"
C=C1CN(c2c(F)cc3c(=O)c(C(=O)O)cn(C4CC4)c3c2F)CC1NC (racemic) [Racemate of the compound 1],0.006,12.5,0.1,0.1,6.3,12.5,0.4,–
"C=C1CN(c2c(F)cc3c(=O)c(C(=O)O)cn(C4CC4)c3c2F)C[C@H]1NC [Compound 1, 7-((-)-(S)-3-Methylamino-4-methylenepyrrolidine)-1-cyclopropyl-6,8-difluoro-1,4-dihydro-4-oxo-3-quinolinecarboxylic acid]",< 0.003,12.5,0.05,0.05,6.3,6.3,0.2,–
CC1COc2c(N3CCN(C)CC3)c(F)cc3c(=O)c(C(=O)O)cn1c23 (stereo not drawn) [Ofloxacin],< 0.02,–,0.4,0.4,50,100,1.6,50
